Experimental data reported in ChEMBL document CHEMBL4699612, “Discovery of thiosemicarbazone-containing compounds with potent anti-proliferation activity against drug-resistant K562/A02 cells” (Bioorg Med Chem Lett, 2020).
One block for each compound: values may come before it. Active and inactive are the calls of the source. The rule behind the calls is not given here.

How the values were obtained:
K562 [1] = test: Antiproliferative activity against human K562 cells by MTT assay; assay type: functional, cell-based
K562/A02 [2] = test: Antiproliferative activity against human K562/A02 cells overexpressing P-gp by MTT assay; assay type: functional, cell-based
[3] = Resistance index, ratio of IC50 for human K562/A02 cells to IC50 for human K562 cells; assay type: functional; parameters: reference not given here
Histone deacetylase 1 = Histone deacetylase 1 (Homo sapiens, UniProt Q13547); test: Inhibition of recombinant human HDAC1 using Boc-Lys(Ac)-AMC as substrate incubated for 60 mins by fluorimetric assay
[4] = target: T1, Protein deacetylase HDAC6 (Homo sapiens, UniProt Q9UBN7); test: Inhibition of recombinant human HDAC6 using Boc-Lys(Ac)-AMC as substrate incubated for 60 mins by fluorimetric assay
T1 sequence (Q9UBN7 whole entry): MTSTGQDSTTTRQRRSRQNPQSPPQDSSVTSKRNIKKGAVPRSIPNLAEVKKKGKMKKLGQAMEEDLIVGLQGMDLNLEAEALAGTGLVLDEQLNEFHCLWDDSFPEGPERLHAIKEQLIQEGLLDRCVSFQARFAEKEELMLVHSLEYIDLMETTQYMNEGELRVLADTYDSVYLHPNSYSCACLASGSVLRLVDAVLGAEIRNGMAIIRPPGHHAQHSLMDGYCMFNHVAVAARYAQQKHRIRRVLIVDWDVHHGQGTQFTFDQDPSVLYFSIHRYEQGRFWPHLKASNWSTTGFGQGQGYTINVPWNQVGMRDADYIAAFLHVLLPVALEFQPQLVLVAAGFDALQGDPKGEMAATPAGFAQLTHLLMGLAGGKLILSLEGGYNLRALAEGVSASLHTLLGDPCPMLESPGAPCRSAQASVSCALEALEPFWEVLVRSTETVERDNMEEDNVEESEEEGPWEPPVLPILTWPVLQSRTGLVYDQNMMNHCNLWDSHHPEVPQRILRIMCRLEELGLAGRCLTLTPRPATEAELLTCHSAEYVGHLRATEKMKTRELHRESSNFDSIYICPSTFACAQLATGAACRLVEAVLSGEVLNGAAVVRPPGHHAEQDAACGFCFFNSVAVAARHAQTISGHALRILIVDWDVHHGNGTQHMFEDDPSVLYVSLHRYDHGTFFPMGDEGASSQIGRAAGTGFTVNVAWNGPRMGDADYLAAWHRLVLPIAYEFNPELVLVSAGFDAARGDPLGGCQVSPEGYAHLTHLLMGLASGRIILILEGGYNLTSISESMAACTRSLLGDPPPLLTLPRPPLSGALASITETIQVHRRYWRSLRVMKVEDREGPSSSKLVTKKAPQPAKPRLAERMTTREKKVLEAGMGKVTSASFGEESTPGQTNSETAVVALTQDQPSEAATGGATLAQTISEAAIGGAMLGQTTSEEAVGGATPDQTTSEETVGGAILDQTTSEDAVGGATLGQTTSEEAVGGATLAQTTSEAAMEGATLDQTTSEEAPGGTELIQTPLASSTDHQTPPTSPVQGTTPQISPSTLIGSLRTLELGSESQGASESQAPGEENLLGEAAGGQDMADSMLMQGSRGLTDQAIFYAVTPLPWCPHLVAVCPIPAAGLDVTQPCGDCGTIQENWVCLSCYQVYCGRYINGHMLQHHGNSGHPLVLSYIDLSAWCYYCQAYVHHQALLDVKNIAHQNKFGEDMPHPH

Histone deacetylase 8 = target: T2, Histone deacetylase 8 (Homo sapiens, UniProt Q9BY41); test: Inhibition of recombinant human HDAC8 using Boc-Lys(Ac)-AMC as substrate incubated for 60 mins by fluorimetric assay
T2 sequence (Q9BY41 whole entry): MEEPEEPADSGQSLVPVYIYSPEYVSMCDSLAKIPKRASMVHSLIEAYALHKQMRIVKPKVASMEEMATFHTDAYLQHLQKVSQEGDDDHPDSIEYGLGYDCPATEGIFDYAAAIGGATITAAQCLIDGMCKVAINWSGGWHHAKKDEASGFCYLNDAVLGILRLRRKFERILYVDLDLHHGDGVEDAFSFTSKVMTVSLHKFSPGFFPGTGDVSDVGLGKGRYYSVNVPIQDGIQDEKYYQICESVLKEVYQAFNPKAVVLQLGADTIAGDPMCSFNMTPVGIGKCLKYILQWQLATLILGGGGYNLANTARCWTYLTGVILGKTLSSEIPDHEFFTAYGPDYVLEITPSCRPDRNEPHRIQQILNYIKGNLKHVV

K562 [5] = test: Induction of ROS generation in human K562 cells at 1 to 3 uM by DCFHA-DA based assay; assay type: functional, cell-based; conditions: dose microM 1-3
K562/A02 [6] = test: Induction of ROS generation in human K562/A02 cells by DCFHA-DA based assay; assay type: functional, cell-based; conditions: dose microM 1-3
K562/A02 [7] = test: Induction of ROS generation in human K562/A02 cells at 3 uM in presence of ROS scavenger, NAC by DCFHA-DA based assay; assay type: functional, cell-based
K562/A02 [8] = test: Cytotoxicity against human K562/A02 cells at 3 uM incubated for 24 hrs in presence of ROS scavenger, NAC by MTT assay; assay type: functional, cell-based
K562/A02 [9] = test: Effect on P-gp expression in human K562/A02 cells overexpressing P-gp; assay type: functional, cell-based
K562/A02 [10] = test: Induction of apoptosis in human K562/A02 cells assessed as viable cells at 1 uM incubated for 48 hrs by annexin V and propidium iodide staining based flow cytometry (reference value: 92.94 %); assay type: functional; conditions: read-out: Activity
K562/A02 [11] = test: Induction of apoptosis in human K562/A02 cells assessed as early apoptotic cells at 1 uM incubated for 48 hrs by annexin V and propidium iodide staining based flow cytometry (reference value: 1.42 %); assay type: functional
K562/A02 [12] = test: Induction of apoptosis in human K562/A02 cells assessed as late apoptotic cells at 1 uM incubated for 48 hrs by annexin V and propidium iodide staining based flow cytometry (reference value: 0.83 %); assay type: functional
K562/A02 [13] = test: Induction of apoptosis in human K562/A02 cells assessed as necrotic cells at 1 uM incubated for 48 hrs by annexin V and propidium iodide staining based flow cytometry (reference value: 4.81 %); assay type: functional
K562/A02 [14] = test: Induction of apoptosis in human K562/A02 cells assessed as viable cells at 3 uM incubated for 48 hrs by annexin V and propidium iodide staining based flow cytometry (reference value: 92.94 %); assay type: functional; conditions: read-out: Activity
K562/A02 [15] = test: Induction of apoptosis in human K562/A02 cells assessed as early apoptotic cells at 3 uM incubated for 48 hrs by annexin V and propidium iodide staining based flow cytometry (reference value: 1.42 %); assay type: functional
K562/A02 [16] = test: Induction of apoptosis in human K562/A02 cells assessed as late apoptotic cells at 3 uM incubated for 48 hrs by annexin V and propidium iodide staining based flow cytometry (reference value: 0.83 %); assay type: functional
K562/A02 [17] = test: Induction of apoptosis in human K562/A02 cells assessed as necrotic cells at 3 uM incubated for 48 hrs by annexin V and propidium iodide staining based flow cytometry (reference value: 4.81 %); assay type: functional
K562/A02 [18] = test: Up regulation of acetylated histone H3 expression level in human K562/A02 cells at 1 to 3 uM measured after 48 hrs by Western blot analysis; assay type: functional, cell-based; conditions: dose microM 1-3, time 48.0 hrs
K562/A02 [19] = test: Up regulation of acetylated histone H4 expression level in human K562/A02 cells at 1 to 3 uM measured after 48 hrs by Western blot analysis; assay type: functional, cell-based; conditions: dose microM 1-3, time 48.0 hrs
K562/A02 [20] = test: Induction of apoptosis in human K562/A02 cells assessed as increase in Bax expression incubated for 48 hrs by Western blot analysis; assay type: functional, cell-based; conditions: dose microM 1-3, time 48.0 hrs
K562/A02 [21] = test: Induction of apoptosis in human K562/A02 cells assessed as decrease in Bcl2 expression incubated for 48 hrs by Western blot analysis; assay type: functional, cell-based; conditions: dose microM 1-3, time 48.0 hrs
K562/A02 [22] = test: Induction of apoptosis in human K562/A02 cells assessed as increase in cleaved caspase 3 expression incubated for 48 hrs by Western blot analysis; assay type: functional, cell-based; conditions: dose microM 1-3, time 48.0 hrs
K562/A02 [23] = test: Induction of apoptosis in human K562/A02 cells assessed as increase in cleaved PARP expression incubated for 48 hrs by Western blot analysis; assay type: functional, cell-based; conditions: dose microM 1-3, time 48.0 hrs
K562/A02 [24] = test: Effect on P-gp activity in human K562/A02 cells; assay type: cell-based; conditions: filed as modulator

Histone deacetylase 1, sequence (Q13547 whole entry): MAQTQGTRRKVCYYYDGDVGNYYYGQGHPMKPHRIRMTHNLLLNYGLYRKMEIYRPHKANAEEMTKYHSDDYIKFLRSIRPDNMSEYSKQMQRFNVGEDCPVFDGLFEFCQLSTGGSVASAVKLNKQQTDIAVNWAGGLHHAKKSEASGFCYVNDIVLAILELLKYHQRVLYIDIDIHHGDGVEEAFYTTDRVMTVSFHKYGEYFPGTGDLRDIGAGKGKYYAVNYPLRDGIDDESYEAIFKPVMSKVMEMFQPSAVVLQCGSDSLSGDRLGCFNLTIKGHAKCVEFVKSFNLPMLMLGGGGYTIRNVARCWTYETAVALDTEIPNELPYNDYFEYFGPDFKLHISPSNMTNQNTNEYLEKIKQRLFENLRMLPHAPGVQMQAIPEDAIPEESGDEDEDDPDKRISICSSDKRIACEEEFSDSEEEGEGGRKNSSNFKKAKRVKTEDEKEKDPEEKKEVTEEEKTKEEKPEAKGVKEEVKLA

- IC50 (K562 [1]): 2140 nM
- IC50 (K562/A02 [2]): 2030 nM
SMILES: O=C(CCCCCNC(=S)N/N=C(\c1ccccc1)c1ccccn1)NO
- Ratio IC50 [3]: 0.95

- IC50 (K562 [1]): 1890 nM
- IC50 (K562/A02 [2]): 1020 nM
- IC50 (Histone deacetylase 1): 69.2 nM
- IC50 [4]: 62.9 nM
- IC50 (Histone deacetylase 8): > 5000 nM
SMILES: C/C(=N\NC(=S)NCCCCCC(=O)NO)c1ccc(F)cc1
- Ratio IC50 [3]: 0.54

- IC50 (K562 [1]): 1910 nM
- IC50 (K562/A02 [2]): 1890 nM
SMILES: COc1cccc(/C(C)=N/NC(=S)NCCCCCC(=O)NO)c1
- Ratio IC50 [3]: 0.98

- IC50 (K562 [1]): > 10000 nM
- IC50 (K562/A02 [2]): > 10000 nM
SMILES: C/C(=N\NC(=S)NCCCC(=O)NO)c1cccc([N+](=O)[O-])c1

The next lines start with the compound.

SMILES: Cc1ccccc1/C(=N/NC(=S)NCCCCCC(=O)NO)c1ccccc1
- IC50 (K562 [1]): 3510 nM
- IC50 (K562/A02 [2]): 4220 nM
- Ratio IC50 [3]: 1.2

SMILES: C/C(=N\NC(=S)NCCCC(=O)NO)c1ccc([N+](=O)[O-])cc1
- IC50 (K562 [1]): > 10000 nM
- IC50 (K562/A02 [2]): > 10000 nM

SMILES: O=C(CCCCCCC(=O)Nc1ccccc1)NO [VORINOSTAT]
- IC50 (K562/A02 [2]): 3130 nM

SMILES: O=C(CCCCCNC(=S)NN=C(c1ccccc1)c1ccccc1)NO
- IC50 (K562 [1]): 3810 nM
- IC50 (K562/A02 [2]): 3640 nM
- Ratio IC50 [3]: 0.96

SMILES: O=C(CCCCCNC(=S)NN=C(c1ccccn1)c1ccccn1)NO
- IC50 (K562 [1]): 2870 nM
- IC50 (K562/A02 [2]): 2180 nM
- Ratio IC50 [3]: 0.76

SMILES: C/C(=N\NC(=S)NCCCCCC(=O)NO)c1ccc(Br)cc1
- IC50 (K562 [1]): 960 nM
- IC50 (K562/A02 [2]): 440 nM
- Ratio IC50 [3]: 0.46
- IC50 (Histone deacetylase 1): 38.6 nM
- IC50 [4]: 34.6 nM
- IC50 (Histone deacetylase 8): > 5000 nM
- Activity (K562 [5]): inactive
- Activity (K562/A02 [6]): Dose-dependent effect
- Activity (K562/A02 [7]): inactive
- Activity (K562/A02 [8]): inactive
- Activity (K562/A02 [9]): Active
- viability at 1 µM (K562/A02 [10]): 27.2%
- Activity (K562/A02 [11]): 16.35%
- Activity (K562/A02 [12]): 52%
- Activity (K562/A02 [13]): 4.4%
- viability at 3 µM (K562/A02 [14]): 18.9%
- Activity (K562/A02 [15]): 22.28%
- Activity (K562/A02 [16]): 53.69%
- Activity (K562/A02 [17]): 5.18%
- Activity (K562/A02 [18]): Active
- Activity (K562/A02 [19]): Active
- Activity (K562/A02 [20]): Dose-dependent effect
- Activity (K562/A02 [21]): Dose-dependent effect
- Activity (K562/A02 [22]): Dose-dependent effect
- Activity (K562/A02 [23]): Dose-dependent effect
- Activity (K562/A02 [24]): Active

SMILES: C/C(=N\NC(=S)NCCCCCC(=O)NO)c1cccc(Br)c1
- IC50 (K562 [1]): 1260 nM
- IC50 (K562/A02 [2]): 520 nM
- Ratio IC50 [3]: 0.41
- IC50 (Histone deacetylase 1): 54.6 nM
- IC50 [4]: 37.7 nM
- IC50 (Histone deacetylase 8): > 5000 nM
